From PubChem BioAssay (NCI)
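Tested at 5 concentrations; 48 h exposure; 96-well plates; endpoints linearly interpolated, else capped at highest concentration. GI50 marks 50% less growth. TGI denotes the concentration required for complete inhibition of growth.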

Key:
Assay in all cases: inhibition of tumour cell growth, NCI panel, 48 h
A549 NSCLC = system: A549 NSCLC
HOP-92 NSCLC = system: HOP-92 NSCLC
OVCAR-3 ovarian = system: OVCAR-3 ovarian
OVCAR-4 ovarian = system: OVCAR-4 ovarian
OVCAR-5 ovarian = system: OVCAR-5 ovarian
SNB-19 CNS = system: SNB-19 CNS
SNB-75 CNS = system: SNB-75 CNS
TK-10 renal = system: TK-10 renal
UACC-257 melanoma = system: UACC-257 melanoma
RPMI-8226 leukemia = system: RPMI-8226 leukemia

| SMILES | TGI (A549 NSCLC) | TGI (HOP-92 NSCLC) | TGI (OVCAR-3 ovarian) | TGI (OVCAR-4 ovarian) | TGI (OVCAR-5 ovarian) | TGI (SNB-19 CNS) | TGI (SNB-75 CNS) | TGI (TK-10 renal) | TGI (UACC-257 melanoma) | GI50 (A549 NSCLC) | GI50 (HOP-92 NSCLC) | GI50 (OVCAR-3 ovarian) | GI50 (OVCAR-4 ovarian) | GI50 (OVCAR-5 ovarian) | GI50 (RPMI-8226 leukemia) | TGI (RPMI-8226 leukemia) | GI50 (SNB-19 CNS) | GI50 (TK-10 renal) | GI50 (UACC-257 melanoma) | GI50 (SNB-75 CNS) |
| --- | --- | --- | --- | --- | --- | --- | --- | --- | --- | --- | --- | --- | --- | --- | --- | --- | --- | --- | --- | --- |
| CC(=O)OCc1cc2c(s1)C(=O)c1sccc1C2=O | 0.368 µM | 1.68 µM | 0.492 µM | 0.334 µM | 0.332 µM | 0.317 µM | 0.12 µM | 3.73 µM | 0.244 µM |  |  |  |  |  |  |  |  |  |  |  |
| Nc1nc(N)c(-c2ccccc2)c(C(=O)Nc2nccs2)n1 | > 100 µM | > 100 µM | > 100 µM | > 100 µM | > 100 µM | > 100 µM |  | > 100 µM | > 100 µM |  |  |  |  |  |  |  |  |  |  |  |
| COc1ccc(Cl)cc1Nc1nc(C(F)(F)F)ccc1C(=O)N/N=C/c1ccc(Cl)cc1 | > 100 µM | 67.2 µM | 1.66 µM | > 100 µM | > 100 µM | > 100 µM |  | 16.8 µM | > 100 µM | 37.7 µM | 11.4 µM | 0.576 µM | 0.74 µM | 6.48 µM | 3.5 µM | > 100 µM | 6.42 µM | 0.513 µM | 7.91 µM |  |
| Cc1cc2c(=O)cc(-c3ccncc3)oc2c(C(=O)O)c1C | > 100 µM | > 100 µM | > 100 µM |  | > 100 µM | > 100 µM | > 100 µM | > 100 µM | > 100 µM |  |  |  |  |  |  | > 100 µM |  |  |  |  |
| N#Cc1c(N/N=C/c2c(Cl)cccc2Cl)nc(N)nc1N1CCCC1 | > 100 µM | > 100 µM | > 100 µM | > 100 µM | > 100 µM | > 100 µM | > 100 µM | > 100 µM |  | 3.65 µM | 9.41 µM | 0.878 µM | > 100 µM | 8.31 µM | 2.56 µM | 8.21 µM | 7.14 µM | 5.9 µM |  | 2.01 µM |
| N#Cc1c(N)nc(N2CCOCC2)c(C#N)c1-c1ccc(Cl)cc1Cl | 54.9 µM | 26.3 µM | 41.3 µM | 78.2 µM | 71.2 µM | 60.9 µM | 30.4 µM |  | 62.4 µM | 20.2 µM | 3.35 µM | 13.7 µM | 21.8 µM | 23.1 µM | 19.5 µM | 56.9 µM | 15.9 µM |  | 18 µM | 6.31 µM |
| COC(=O)CCSC(=O)Nc1ccccc1Cl | > 100 µM |  | > 100 µM | > 100 µM | > 100 µM | > 100 µM | > 100 µM | > 100 µM | > 100 µM |  |  |  |  |  |  | > 100 µM |  |  |  |  |
| Oc1ccc(CCNc2nc3ccccc3c3[nH]c4ccccc4c23)cc1 | 2.75 µM | 2.82 µM | 3.24 µM | 3.15 µM | 7.18 µM | 5.3 µM | 3.82 µM | 3.3 µM | 3.46 µM | 1.33 µM | 1.3 µM | 1.6 µM | 1.66 µM | 2.89 µM |  |  | 1.83 µM | 1.75 µM | 1.94 µM | 1.81 µM |
| CCOC(=O)C1C(=O)C(=O)N2CCc3c([nH]c4ccccc34)C12 (configuration not stated) | > 100 µM | > 100 µM | > 100 µM | > 100 µM | > 100 µM | > 100 µM |  | > 100 µM |  |  |  |  |  |  |  | > 100 µM |  |  |  |  |
| CCNC(=O)O/N=C1/C=C2CC[C@@H]3C(CC[C@@]4(C)C3CC[C@@H]4OC(=O)NCC)[C@@]2(C)CC1 (some centres not stated) | 14.2 µM | 16.7 µM |  | 6.39 µM | 20 µM | 8.21 µM | 5.94 µM | 8.8 µM | 11.1 µM |  |  |  |  |  |  | 7.02 µM |  |  |  |  |
| Cn1nc(-c2ccccc2)c(C(=O)/C=C/c2ccccc2)c(N2CCCC2)c1=O | > 100 µM | 6.23 µM |  |  |  |  |  | 49.3 µM |  |  |  |  |  |  |  | 29.3 µM |  |  |  |  |
| CC1=CC(=O)N2[C@H](OC[C@@H]2C(C)C)O1 | > 100 µM | > 100 µM | > 100 µM | > 100 µM |  | > 100 µM | > 100 µM | > 100 µM | > 100 µM |  |  |  |  |  |  | > 100 µM |  |  |  |  |
| CCn1c(SC)nnc1-c1cc2c([nH]c3ccccc32)c(-c2cccc(O)c2)n1 | 62.9 µM | 9.08 µM | 5.35 µM | 13 µM | 43.1 µM | 47 µM | 3.94 µM | 13.1 µM |  | 3.61 µM | 1.1 µM | 1.67 µM | 2.75 µM | 10 µM | 1.58 µM | 10.2 µM | 4.16 µM | 2.68 µM |  | 1.3 µM |
| CN(C)c1ccc(/C=C2\Cc3ccccc3C2=O)cc1Br | > 100 µM |  | > 100 µM | > 100 µM | > 100 µM | > 100 µM | > 100 µM | > 100 µM | > 100 µM |  |  |  |  |  |  | 84.3 µM |  |  |  |  |
| CC1CC2C(=O)N(c3ccccc3)C(=O)C2c2[nH]c3ccccc3c21 (configuration not stated) | > 100 µM |  | > 100 µM | > 100 µM |  |  | 55.1 µM | > 100 µM |  |  |  |  |  |  |  | > 100 µM |  |  |  |  |
| O=[N+]([O-])C1(CO)COC(CCc2ccccc2)OC1 (configuration not stated) | > 100 µM | > 100 µM | > 100 µM | > 100 µM | > 100 µM |  | > 100 µM | > 100 µM | > 100 µM |  |  |  |  |  |  |  |  |  |  |  |
| NC(=O)NC(=O)C1CCC(=O)N1S(=O)(=O)c1ccc(Cl)cc1 (configuration not stated) | > 100 µM | > 100 µM | > 100 µM | > 100 µM |  | > 100 µM | > 100 µM | > 100 µM | > 100 µM |  |  |  |  |  |  | > 100 µM |  |  |  |  |
| CCOC(=O)Oc1ccc2[nH]c3c(C)cc(N)c(C)c3c2c1 | > 100 µM |  | > 100 µM | > 100 µM | > 100 µM | > 100 µM | > 100 µM | > 100 µM | > 100 µM |  |  |  |  |  |  | > 100 µM |  |  |  |  |
| CC(=O)OCC1OC(OC(C)=O)C(NC#N)C(OC(C)=O)C1OC(C)=O (configuration not stated) | > 100 µM | > 100 µM | > 100 µM | > 100 µM | > 100 µM | > 100 µM | > 100 µM | > 100 µM |  |  |  |  |  |  |  | > 100 µM |  |  |  |  |
| Cc1cccc2c1Oc1ncccc1C2NC(=O)CN(C)C (configuration not stated) | > 10 µM | > 10 µM | > 10 µM | > 10 µM | > 10 µM | > 10 µM | > 10 µM | > 10 µM | > 10 µM |  |  |  |  |  |  |  |  |  |  |  |
| Cc1nc(-c2cccnc2)sc1C(=O)/C=C/c1ccc(Cl)cc1Cl | > 100 µM | > 100 µM | > 100 µM |  | > 100 µM |  | > 100 µM | > 100 µM | > 100 µM |  |  |  |  |  |  | > 100 µM |  |  |  |  |
